# Results reported in US8895611B1, “Cytotoxic compounds for treating cancer” (King Fahd University of Petroleum and Minerals, priority 2013, dated 2014).
# Experiments:
# [1] = system: prostate cancer cells (PC-3); experiment: MTT cell proliferation / cytotoxicity assay with trypan blue dye exclusion, PC-3 cells; type: cell-based, human; details: for activity / inhibition against human prostate cancer cells (PC-3): after 24 and 72 hours of treatment, FIGS. 1A-3B
# Protocol: (§1) In FIGS. 1A-3B, the cells were treated with a concentration of 10 μM of each compound.
# (§2) The anti-proliferative effect was measured by MTT assay.
# (§3) Six duplicate wells were set up for each sample, and cells untreated with a compound served as a control. Treatment was conducted at 24 and 72 hours, respectively. After incubation, 10 μL MTT (6 g/L, Sigma) was added to each well and the incubation was continued for 4 hours at 37° C. After removal of the medium, MTT stabilization solution (dimethylsulphoxide: ethanol=1:1) was added to each well, and shaken for ten minutes until all crystals were dissolved. Then, optical density was detected in a micro plate reader at 550 nm wavelength using an enzyme-linked immunosorbent assay (ELISA) reader. Each assay was performed in triplicate. Cell number and viability were determined by trypan blue dye exclusion analysis.
# (§4) The cytotoxicity assay was performed with various concentrations of the synthesized gold (III) complexes on PC-3 and SGC-7901 cells.
# [2] = system: human gastric cancer cells (SGC-7901); experiment: MTT cell proliferation / cytotoxicity assay with trypan blue dye exclusion, SGC-7901 cells; type: cell-based; details: for activity / inhibition against gastric cancer cells SGC-7901: after 24 and 72 hours of treatment, FIGS. 1A-3B
# Protocol: as §1, §2, §3, §4
Molecule,activity / inhibition against human prostate cancer cells (PC-3) ([1]; 10 μM),"bioactivity on PC-3 cells, trans-(1R,2R) compared with trans-(1S,2S) isomer ([1]; conclusion from FIGS. 1A-6B)",activity / inhibition against gastric cancer cells SGC-7901 ([2]; 10 μM),"bioactivity on SGC-7901 cells, trans-(1R,2R) compared with trans-(1S,2S) isomer ([2]; conclusion from FIGS. 1A-6B)","cytotoxic effect on PC-3 cells, compound 1 compared with compound 2 ([1]; 10 μM, one, two and three days, FIG. 7A)","cell proliferation of PC-3 cells compared with SGC-7901 cells ([1]; fixed 10 μM, after 72 hours, FIGS. 1A and 1B)","cytotoxic effect on SGC-7901 cells, compound 1 compared with compound 2 ([2]; 10 μM, one, two and three days, FIG. 7B)"
"N[C@H]1CCCC[C@@H]1N.[Cl][Au]([Cl])[Cl] [compound 3, (S,S)-(+)-1,2-(DACH)AuCl3]",moderate inhibition,no significant difference in the bioactivity,moderate inhibition,no significant difference in the bioactivity,–,–,–
"cis-(±)-1,2-(DACH)AuCl3 [compound 1]",potentially high activity,–,potentially high activity,–,higher cytotoxic effect in comparison with the same concentration of compound 2,bit higher than that of the SGC-7901 cells,higher cytotoxic effect in comparison with the same concentration of compound 2
"trans-(±)-1,2-(DACH)AuCl3 [compound 2]",moderate inhibition,–,moderate inhibition,–,–,–,–
